Source: patent US10239873B2, “7-azaindole or 4,7-diazaindole derivatives as IKKϵ epsilon and TBK1 inhibitor and pharmaceutical composition comprising same” (GREEN CROSS CORPORATION, priority 2015, dated 2019)

Assays:
TBK1 = biological target: T1, TBK1 (Homo sapiens, UniProt Q9UHD2); assay: ADP-Glo Kinase Assay, inhibition activity on TBK1; assay type: biochemical
T1 construct: purchased Promega (Invitrogen is also named in the same bracket) V4158; PR8031B; V3991 (not assigned to the two kinases)
T1 sequence (Q9UHD2 1-729): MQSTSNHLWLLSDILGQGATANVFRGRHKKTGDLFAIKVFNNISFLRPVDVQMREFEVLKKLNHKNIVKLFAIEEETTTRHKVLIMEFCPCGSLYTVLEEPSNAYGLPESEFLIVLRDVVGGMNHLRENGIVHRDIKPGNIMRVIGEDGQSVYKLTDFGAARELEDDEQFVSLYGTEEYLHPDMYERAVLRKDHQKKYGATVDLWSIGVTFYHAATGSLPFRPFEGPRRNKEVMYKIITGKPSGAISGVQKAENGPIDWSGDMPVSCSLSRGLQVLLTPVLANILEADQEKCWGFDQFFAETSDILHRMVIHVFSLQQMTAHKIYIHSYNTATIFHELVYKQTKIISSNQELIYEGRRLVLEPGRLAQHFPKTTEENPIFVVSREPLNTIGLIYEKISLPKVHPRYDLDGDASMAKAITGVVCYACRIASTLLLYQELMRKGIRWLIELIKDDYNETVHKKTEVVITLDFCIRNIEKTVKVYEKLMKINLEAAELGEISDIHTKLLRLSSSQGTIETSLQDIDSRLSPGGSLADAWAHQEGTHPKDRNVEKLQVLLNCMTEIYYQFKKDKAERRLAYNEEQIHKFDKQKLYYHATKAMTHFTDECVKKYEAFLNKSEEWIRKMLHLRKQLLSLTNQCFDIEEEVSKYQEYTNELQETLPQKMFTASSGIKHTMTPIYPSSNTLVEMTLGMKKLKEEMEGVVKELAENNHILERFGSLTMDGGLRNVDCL
Procedure, shortened: (§1)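 Kinase activity measured with the ADP-Glo luminescent ADP-detection kit per manufacturer's protocol, using IKKε or TBK1 kinase enzyme systems. Reaction buffer: 40 mM Tris (pH 7.5), 20 mM MgCl2, 0.1 mg/mL BSA; luminescence read on a luminometer.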

IKKε = biological target: T2, IKKε (Homo sapiens, UniProt Q14164); assay: ADP-Glo Kinase Assay, inhibition activity on IKKε; assay type: biochemical
T2 construct: purchased Promega and/or Invitrogen V4158; PR8031B; V3991 (not assigned to the two kinases)
T2 sequence (Q14164 1-716): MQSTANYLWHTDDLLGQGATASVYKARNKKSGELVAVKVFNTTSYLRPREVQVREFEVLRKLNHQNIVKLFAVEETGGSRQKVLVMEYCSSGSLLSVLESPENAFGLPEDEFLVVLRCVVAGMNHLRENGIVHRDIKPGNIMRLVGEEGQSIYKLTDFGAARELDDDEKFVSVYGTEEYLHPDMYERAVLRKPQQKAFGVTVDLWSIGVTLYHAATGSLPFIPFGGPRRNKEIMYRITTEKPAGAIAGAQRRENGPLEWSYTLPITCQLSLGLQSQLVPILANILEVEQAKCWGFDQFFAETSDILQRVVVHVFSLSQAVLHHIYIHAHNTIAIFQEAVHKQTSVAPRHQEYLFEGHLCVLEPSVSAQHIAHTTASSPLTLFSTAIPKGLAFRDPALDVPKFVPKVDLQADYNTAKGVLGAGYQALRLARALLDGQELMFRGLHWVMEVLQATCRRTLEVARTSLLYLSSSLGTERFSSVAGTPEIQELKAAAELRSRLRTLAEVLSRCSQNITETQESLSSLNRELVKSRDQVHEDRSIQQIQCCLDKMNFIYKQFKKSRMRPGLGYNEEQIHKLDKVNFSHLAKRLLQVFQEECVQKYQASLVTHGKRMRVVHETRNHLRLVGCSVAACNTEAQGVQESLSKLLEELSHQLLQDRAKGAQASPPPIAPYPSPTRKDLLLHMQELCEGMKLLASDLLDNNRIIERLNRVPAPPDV
Procedure, shortened: as §1

Row | SMILES | IC50 (TBK1) [nM] | IC50 (IKKε) [nM]
1 | CC1C=C(c2c[nH]c3ncc(-c4ccc(CN5CCN(C)CC5)s4)cc23)CCN1C(=O)NC1CCCC1 (stereo not shown) [Example 102, N-cyclopentyl-2-methyl-4-(5-(5-((4-methylpiperazin-1-yl)methyl)thiophen-2-yl)-1H-pyrrolo[2,3-b]pyridin-3-yl)-5,6-dihydropyridine-1(2H)-carboxamide] | 4.4 | 13
2 | CC1CC(c2c[nH]c3ncc(-c4ccc(CN5CCN(C)CC5)s4)cc23)=CCN1C(=O)NC1CCCC1 (stereo not shown) [Example 103, N-cyclopentyl-6-methyl-4-(5-(5-((4-methylpiperazin-1-yl)methyl)thiophen-2-yl)-1H-pyrrolo[2,3-b]pyridin-3-yl)-5,6-dihydropyridine-1(2H)-carboxamide] | 58 | 150
3 | CC1CC(c2c[nH]c3ncc(-c4ccc(CN5CCOCC5)s4)cc23)=CCN1C(=O)NC1CCCC1 (stereo not shown) [Example 104, N-cyclopentyl-6-methyl-4-(5-(5-(morpholinomethyl)thiophen-2-yl)-1H-pyrrolo[2,3-b]pyridin-3-yl)-5,6-dihydropyridine-1(2H)-carboxamide] | 110 | 190
4 | CC1C=C(c2c[nH]c3ncc(-c4ccc(S(C)(=O)=O)cc4)cc23)CCN1C(=O)NC1CCCC1 (stereo not shown) [Example 105, N-cyclopentyl-2-methyl-4-(5-(4-(methylsulfonyl)phenyl)-1H-pyrrolo[2,3-b]pyridin-3-yl)-5,6-dihydropyridine-1(2H)-carboxamide] | 25 | 22
5 | CC1C=C(c2c[nH]c3ncc(-c4ccc(CN5CCOCC5)s4)cc23)CCN1C(=O)NC1CCCC1 (stereo not shown) [Example 106, N-cyclopentyl-2-methyl-4-(5-(5-(morpholinomethyl)thiophen-2-yl)-1H-pyrrolo[2,3-b]pyridin-3-yl)-5,6-dihydropyridine-1(2H)-carboxamide] | 3.1 | 4.7
6 | COc1ccc(-c2cnc3[nH]cc(C4=CC(C)N(C(=O)NC5CCCC5)CC4)c3c2)cc1OC (stereo not shown) [Example 108, N-cyclopentyl-4-(5-(3,4-dimethoxyphenyl)-1H-pyrrolo[2,3-b]pyridin-3-yl)-2-methyl-5,6-dihydropyridine-1(2H)-carboxamide] | 23 | 29
7 | CCC1C=C(c2c[nH]c3ncc(-c4ccc(CN5CCOCC5)s4)cc23)CCN1C(=O)NC(C)C (stereo not shown) [Example 109, 2-Ethyl-N-isopropyl-4-(5-(5-(morpholinomethyl)thiophen-2-yl)-1H-pyrrolo[2,3-b]pyridin-3-yl)-5,6-dihydropyridine-1(2H)-carboxamide] | 220 | 390

Other lines, results leading:

Row | IC50 (TBK1) [nM] | IC50 (IKKε) [nM] | SMILES
8 | 31 | 43 | CCC1CC(c2c[nH]c3ncc(-c4ccc(CN5CCOCC5)s4)cc23)=CCN1C(=O)NC(C)C (stereo not shown) [Example 110, 6-Ethyl-N-isopropyl-4-(5-(5-(morpholinomethyl)thiophen-2-yl)-1H-pyrrolo[2,3-b]pyridin-3-yl)-5,6-dihydropyridine-1(2H)-carboxamide]
9 | 18 | 77 | CCC1C=C(c2c[nH]c3ncc(-c4ccc(CN5CCN(C)CC5)s4)cc23)CCN1C(=O)NC(C)C (stereo not shown) [Example 111, 2-Ethyl-N-isopropyl-4-(5-(5-((4-methylpiperazin-1-yl)methyl)thiophen-2-yl)-1H-pyrrolo[2,3-b]pyridin-3-yl)-5,6-dihydropyridine-1(2H)-carboxamide]
10 | 56 | 62 | CCC1C=C(c2c[nH]c3ncc(-c4ccc(CN5CCOCC5)cc4)cc23)CCN1C(=O)NC(C)C (stereo not shown) [Example 112, 6-Ethyl-N-isopropyl-4-(5-(4-(morpholinomethyl)phenyl)-1H-pyrrolo[2,3-b]pyridin-3-yl)-3,6-dihydropyridine-1(2H)-carboxamide]
11 | 18 | 46 | CCC1C=C(c2c[nH]c3ncc(-c4ccc(C(=O)N5CCN(C)CC5)cc4)cc23)CCN1C(=O)NC(C)C (stereo not shown) [Example 113, 6-Ethyl-N-isopropyl-4-(5-(4-(4-methylpiperazine-1-carbonyl)phenyl)-1H-pyrrolo[2,3-b]pyridin-3-yl)-3,6-dihydropyridine-1(2H)-carboxamide]
